Values after ≈ are worked out from the molar mass of the structure shown. Blank lines part the entries; values can stand above or below the compound they belong to.
Tests used:
[1] = AUC in mouse at 50 mg/kg, po; type: ADME, organism-based; set-up: dose 50 mg/kg, route oral; details: plasma
LoVo = assay: Antitumor activity against human LoVo cells xenografted in mouse assessed as tumor growth inhibition at 100 mg/kg, po qd; type: functional; details: read-out: TGI
KB = assay: Antiproliferative activity against human KB cells; type: functional, cell-based
[2] = Lipophilicity, log D of the compound at pH 7.4; type: physicochemical; details: buffer
[3] = biological target: T1, Receptor tyrosine-protein kinase erbB-2 (Homo sapiens, UniProt P04626); assay: Inhibition of human HER2 kinase domain expressed in baculovirus/Sf21 system by ELISA
[4] = biological target: T1, Receptor tyrosine-protein kinase erbB-2; assay: Inhibition of full-length HER2 phosphorylation transfected in human MCF-7 cl.24 cells after 4 hrs by laser scanning fluorescence microplate cytometry; type: cell-based
[5] = Fraction unbound in rat plasma; type: ADME, cell-free
[6] = Fraction unbound in human plasma; type: ADME, cell-free
Cytochrome P450 2C19 = Cytochrome P450 2C19 (Homo sapiens, UniProt P33261); assay: Inhibition of CYP2C19 (unknown origin); type: ADME
[7] = Clearance in dog at 2 mg/kg, po and 1 mg/kg, iv; type: ADME, organism-based, Canis lupus familiaris; details: in vivo
[8] = Clearance in AP-Wistar rat at 5 mg/kg, po and 2 mg/kg, iv; type: ADME, organism-based; details: in vivo
[9] = Bioavailability in AP-Wistar rat at 5 mg/kg, po and 2 mg/kg, iv; type: ADME, organism-based; details: in vivo
[10] = Apparent permeability from apical to basolateral side of human Caco2 cells at 10 uM; type: ADME, cell-based; details: Caco-2
[11] = Bioavailability in dog at 2 mg/kg, po and 1 mg/kg, iv; type: ADME, organism-based, Canis lupus familiaris; details: in vivo
[12] = Aqueous solubility of the compound in phosphate buffer at pH 6.8; type: physicochemical
Cytochrome P450 2D6 = Cytochrome P450 2D6 (Homo sapiens, UniProt P10635); assay: Inhibition of CYP2D6 (unknown origin); type: ADME
Cytochrome P450 2C9 = Cytochrome P450 2C9 (Homo sapiens, UniProt P11712); assay: Inhibition of CYP2C9 (unknown origin); type: ADME
[13] = Volume of distribution at steady state in dog at 2 mg/kg, po and 1 mg/kg, iv; type: ADME, organism-based, Canis lupus familiaris; details: in vivo, read-out: Vdss
[14] = Intrinsic clearance in human hepatocytes assessed per million cells; type: ADME, cell-based, Hepatocyte; details: read-out: CLH
[15] = Volume of distribution at steady state in AP-Wistar rat at 5 mg/kg, po and 2 mg/kg, iv; type: ADME, organism-based; details: in vivo, read-out: Vdss
Cytochrome P450 1A2 = biological target: T2, Cytochrome P450 1A2 (Homo sapiens, UniProt P05177); assay: Inhibition of CYP1A2 (unknown origin); type: ADME
T2 sequence (P05177 whole entry): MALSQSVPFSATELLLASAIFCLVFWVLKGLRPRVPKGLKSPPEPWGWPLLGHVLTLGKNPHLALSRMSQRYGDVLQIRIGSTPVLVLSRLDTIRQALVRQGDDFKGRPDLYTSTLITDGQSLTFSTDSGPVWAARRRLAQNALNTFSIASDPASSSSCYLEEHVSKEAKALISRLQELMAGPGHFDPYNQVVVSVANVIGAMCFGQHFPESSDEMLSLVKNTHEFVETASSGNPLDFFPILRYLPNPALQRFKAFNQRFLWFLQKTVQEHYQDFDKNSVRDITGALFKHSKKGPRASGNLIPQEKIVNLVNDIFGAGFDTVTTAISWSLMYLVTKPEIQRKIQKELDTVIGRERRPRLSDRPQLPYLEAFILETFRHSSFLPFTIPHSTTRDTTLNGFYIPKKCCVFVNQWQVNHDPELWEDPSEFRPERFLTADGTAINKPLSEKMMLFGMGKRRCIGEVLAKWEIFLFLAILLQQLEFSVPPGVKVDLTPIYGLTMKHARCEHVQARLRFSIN

T1 sequence (P04626 whole entry, the tested form may be a part): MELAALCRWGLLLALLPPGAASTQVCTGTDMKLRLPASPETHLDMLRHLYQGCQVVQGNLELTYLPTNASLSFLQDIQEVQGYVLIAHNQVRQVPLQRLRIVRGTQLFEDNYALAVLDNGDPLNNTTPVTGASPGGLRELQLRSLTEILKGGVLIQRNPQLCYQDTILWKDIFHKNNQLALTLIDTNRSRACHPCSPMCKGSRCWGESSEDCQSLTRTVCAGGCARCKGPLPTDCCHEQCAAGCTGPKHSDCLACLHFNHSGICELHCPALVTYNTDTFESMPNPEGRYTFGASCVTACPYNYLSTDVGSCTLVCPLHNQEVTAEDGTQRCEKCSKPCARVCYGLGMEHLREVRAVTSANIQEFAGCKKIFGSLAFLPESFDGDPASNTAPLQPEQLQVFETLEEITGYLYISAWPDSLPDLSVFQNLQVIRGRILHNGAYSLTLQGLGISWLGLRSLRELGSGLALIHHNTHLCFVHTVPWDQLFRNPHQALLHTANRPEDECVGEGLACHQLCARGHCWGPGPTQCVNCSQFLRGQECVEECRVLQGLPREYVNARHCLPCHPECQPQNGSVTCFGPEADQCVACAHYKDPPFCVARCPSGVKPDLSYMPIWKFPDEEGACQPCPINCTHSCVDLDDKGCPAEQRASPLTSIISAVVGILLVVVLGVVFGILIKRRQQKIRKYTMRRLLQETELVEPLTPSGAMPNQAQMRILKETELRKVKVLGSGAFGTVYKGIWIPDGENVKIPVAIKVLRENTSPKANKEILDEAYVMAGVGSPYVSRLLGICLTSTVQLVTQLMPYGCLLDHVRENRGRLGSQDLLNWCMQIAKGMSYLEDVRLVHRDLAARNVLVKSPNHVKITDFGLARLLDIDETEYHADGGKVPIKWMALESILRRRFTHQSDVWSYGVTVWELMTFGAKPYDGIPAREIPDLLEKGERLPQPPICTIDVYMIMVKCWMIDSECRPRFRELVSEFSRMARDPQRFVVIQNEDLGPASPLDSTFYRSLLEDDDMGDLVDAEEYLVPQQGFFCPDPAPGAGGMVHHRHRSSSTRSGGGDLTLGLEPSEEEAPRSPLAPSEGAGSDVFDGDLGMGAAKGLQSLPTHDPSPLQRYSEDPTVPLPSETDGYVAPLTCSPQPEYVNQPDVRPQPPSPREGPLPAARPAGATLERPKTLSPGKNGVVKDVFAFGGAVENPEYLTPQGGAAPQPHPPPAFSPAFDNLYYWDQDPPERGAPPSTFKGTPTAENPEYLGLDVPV
Cytochrome P450 2C19, sequence (P33261 whole entry): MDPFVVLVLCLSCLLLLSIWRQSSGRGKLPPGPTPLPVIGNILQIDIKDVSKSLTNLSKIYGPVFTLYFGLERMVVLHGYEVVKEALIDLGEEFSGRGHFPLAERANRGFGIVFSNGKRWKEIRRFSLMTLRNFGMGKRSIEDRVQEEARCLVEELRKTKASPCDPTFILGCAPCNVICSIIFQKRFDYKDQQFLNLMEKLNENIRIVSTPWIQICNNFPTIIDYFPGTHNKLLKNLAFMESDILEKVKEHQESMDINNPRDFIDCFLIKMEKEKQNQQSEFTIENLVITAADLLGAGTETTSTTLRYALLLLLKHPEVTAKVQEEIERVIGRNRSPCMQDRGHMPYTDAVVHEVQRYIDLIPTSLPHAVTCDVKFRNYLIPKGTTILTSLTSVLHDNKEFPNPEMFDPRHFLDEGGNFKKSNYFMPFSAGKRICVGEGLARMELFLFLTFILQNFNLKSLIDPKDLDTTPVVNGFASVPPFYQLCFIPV
Cytochrome P450 2D6, sequence (P10635 whole entry): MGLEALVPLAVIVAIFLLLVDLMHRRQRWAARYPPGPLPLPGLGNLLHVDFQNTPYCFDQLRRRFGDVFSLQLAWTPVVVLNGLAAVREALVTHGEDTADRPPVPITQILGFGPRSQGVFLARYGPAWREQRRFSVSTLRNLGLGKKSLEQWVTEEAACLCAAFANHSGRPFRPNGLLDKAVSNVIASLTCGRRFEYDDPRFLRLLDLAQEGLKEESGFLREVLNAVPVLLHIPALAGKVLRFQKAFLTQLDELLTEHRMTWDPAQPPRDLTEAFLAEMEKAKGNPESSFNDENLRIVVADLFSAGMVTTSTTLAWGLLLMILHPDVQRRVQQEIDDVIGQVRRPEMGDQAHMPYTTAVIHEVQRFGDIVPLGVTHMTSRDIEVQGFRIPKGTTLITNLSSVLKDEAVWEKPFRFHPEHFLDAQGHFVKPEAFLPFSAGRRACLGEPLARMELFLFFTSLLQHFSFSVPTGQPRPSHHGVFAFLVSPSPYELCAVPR
Cytochrome P450 2C9, sequence (P11712 whole entry): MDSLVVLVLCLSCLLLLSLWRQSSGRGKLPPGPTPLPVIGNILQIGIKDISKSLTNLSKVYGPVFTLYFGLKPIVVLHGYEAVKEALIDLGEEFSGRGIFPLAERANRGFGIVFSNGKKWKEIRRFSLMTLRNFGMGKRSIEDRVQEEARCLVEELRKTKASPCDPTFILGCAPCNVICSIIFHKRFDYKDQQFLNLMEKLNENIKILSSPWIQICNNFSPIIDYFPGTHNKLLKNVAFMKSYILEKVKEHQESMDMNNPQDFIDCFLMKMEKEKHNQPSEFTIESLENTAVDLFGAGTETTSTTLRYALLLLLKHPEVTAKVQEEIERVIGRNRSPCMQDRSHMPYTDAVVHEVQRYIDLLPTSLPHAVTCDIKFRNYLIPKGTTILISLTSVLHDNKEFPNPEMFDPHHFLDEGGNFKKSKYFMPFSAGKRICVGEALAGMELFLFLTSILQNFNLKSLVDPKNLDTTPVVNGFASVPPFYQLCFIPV

SMILES: CNC(=O)CN1CCC(Oc2cc3c(Nc4ccc(F)c(Cl)c4)ncnc3cc2OC)CC1
fraction unbound [5]: 0.029
AUC [1]: 19 µM·h
IC50 [4]: 264 nM
inhibition in vivo at 100 mg/kg (LoVo): 28%
fraction unbound [6]: 0.027
logD [2]: 4

SMILES: CNC(=O)CN1CCC(Oc2cc3c(Nc4ccc(F)c(Cl)c4F)ncnc3cc2OC)CC1
IC50 [4]: 89 nM

SMILES: CNC(=O)CN1CCC(Oc2cc3c(Nc4cccc(Cl)c4)ncnc3cc2OC)CC1
IC50 [4]: 360 nM

SMILES: CNC(=O)CN1CCC(Oc2cc3c(Nc4cc(Cl)ccc4F)ncnc3cc2OC)CC1
IC50 [4]: 860 nM

SMILES: CNC(=O)CN1CC(Oc2cc3c(Nc4cccc(Cl)c4F)ncnc3cc2OC)C1
IC50 [4]: 1100 nM

SMILES: CNC(=O)CN(C)CCOc1cc2c(Nc3cccc(Cl)c3F)ncnc2cc1OC
IC50 [4]: 1500 nM

SMILES: CNC(=O)CN1CCC(Oc2cc3c(Nc4cccc(Cl)c4F)ncnc3cc2OC)CC1 [SAPITINIB]
IC50 [3]: 14 nM
fraction unbound [5]: 0.072
AUC [1]: 66 µM·h
IC50 (Cytochrome P450 2C19): > 10000 nM
clearance [7]: 1.1 mL/min/kg
IC50 [4]: 60 nM
clearance [8]: 13 mL/min/kg
bioavailability [9]: 38%
Papp A→B at 10 µM [10]: 15.9 ×10⁻⁶ cm/s
bioavailability [11]: 89%
solubility [12]: 17 µM (≈ 8.06 µg/mL)
inhibition in vivo at 100 mg/kg (LoVo): 76%
IC50 (Cytochrome P450 2D6): > 10000 nM
fraction unbound [6]: 0.067
logD [2]: 3.2
IC50 (Cytochrome P450 2C9): > 10000 nM
Vd [13]: 0.2 L/kg
hepatocyte CLint [14]: < 4.5 µL/min/1e6 cells
Vd [15]: 0.8 L/kg
IC50 (Cytochrome P450 1A2): > 10000 nM

More lines, main results first:

AUC [1]: 19 µM·h
IC50 (KB): 4 nM
logD [2]: 3.1
SMILES: COc1cc2ncnc(Nc3cccc(Cl)c3F)c2cc1OC1CCN(CC(N)=O)CC1
inhibition in vivo at 100 mg/kg (LoVo): 36%

IC50 [3]: 33 nM
IC50 [4]: 120 nM
SMILES: CCNC(=O)CN1CCC(Oc2cc3c(Nc4cccc(Cl)c4F)ncnc3cc2OC)CC1

IC50 [3]: 91 nM
IC50 [4]: 250 nM
SMILES: COCCNC(=O)CN1CCC(Oc2cc3c(Nc4cccc(Cl)c4F)ncnc3cc2OC)CC1

IC50 [3]: 110 nM
IC50 [4]: 410 nM
SMILES: COc1cc2ncnc(Nc3cccc(Cl)c3F)c2cc1OC1CCN(CC(=O)NC(C)C)CC1

IC50 [3]: 220 nM
IC50 [4]: 670 nM
SMILES: COc1cc2ncnc(Nc3cccc(Cl)c3F)c2cc1OC1CCN(CC(=O)N(C)C)CC1

IC50 [4]: 550 nM
SMILES: CNC(=O)CCN1CCC(Oc2cc3c(Nc4cccc(Cl)c4F)ncnc3cc2OC)CC1

IC50 [4]: 230 nM
SMILES: CNC(=O)CN1CCCC(Oc2cc3c(Nc4cccc(Cl)c4F)ncnc3cc2OC)C1 (racemic)

IC50 [4]: 250 nM
SMILES: CNC(=O)CN1CCC(Oc2cc3c(Nc4cccc(Cl)c4F)ncnc3cc2OC)C1 (racemic)
